Results published in publication PMC12188297 (2025).

Tested on: flexible GA-rich RNA, 5'-U(GAAG)2GU (RNA, single strand) UGAAGGAAGGU
Assay: fluorescence polarization
Settings: Na+ 50 mM; 25 mM MES pH 6.1, 0.002% Triton X, 25 °C; ligand fluorescence

SMILES	Kd [µM]
Cc1cn2cc(-c3cc4c(C)cc(N5CCN[C@@H](C)C5)cc4oc3=O)cc(F)c2n1	19.3 ± 0.9
Cc1cn2cc(-c3cc4ccc(N5CCN[C@@H](C)C5)cc4n4cnnc34)cc(F)c2n1	16.4 ± 1.1
CCn1c(=O)c(-c2cc(F)c3nc(C)cn3c2)cc2ccc(N3CCN[C@@H](C)C3)cc21	39.7 ± 11.5
O=c1oc2cc(N3CCNCC3)ccc2cc1-c1ccc2ncccc2c1	17.8 ± 3.9
Cc1cn2cc(-c3cc4ccc(N5CCN[C@@H](C)C5)cc4oc3=O)cc(F)c2n1	14.3 ± 1.1
Cc1cn2cc(-c3cc4ccc(N5CC6CC(C5)N6)cc4oc3=O)cc(F)c2n1	10.7 ± 0.9
C[C@H]1CN(c2ccc3cc(-c4cc(F)c5nn(C)cc5c4)c(=O)oc3c2)CCN1	12.6 ± 0.4
CNC1CCN(c2ccc3cc(-c4cc(F)c5nc(C)cn5c4)c(=O)oc3c2)CC1	16.7 ± 0.5
Cc1cn2cc(-c3cc4ccc(N5CCN[C@@H](C)C5)cc4[nH]c3=O)cc(F)c2n1	33.3 ± 1.3
Cc1cn2cc(-c3cc4ccc(N5CCN[C@@H](C)C5)cc4n(CC4CC4)c3=O)cc(F)c2n1	42.6 ± 15.2
CN1CCN(c2ccc3cc(-c4ccc(Cl)cc4)c(=O)oc3c2)CC1	37.2 ± 1.0
Cc1cn2cc(-c3cc4ccc(N5CCN(C)CC5)cc4oc3=O)nc2c(C)n1	40.4 ± 6.5
C[C@H]1CN(c2ccc3cc(-c4cc(F)c5c(cnn5C)c4)c(=O)oc3c2)CCN1	11.6 ± 0.01
O=c1oc2cc(N3CCNCC3)ccc2cc1-c1ccc2ccccc2c1	34.1 ± 0.6
CN1CCN(c2cc(F)c3cc(-c4ccc(Cl)cc4)c(=O)oc3c2)CC1	42.8 ± 2.7
Cc1cn2cc(-c3cc4ccc(NC5CNC5)cc4oc3=O)cc(F)c2n1	15.6 ± 0.7
Cc1cn2cc(-c3cc4ccc(N5CC6(CNC6)C5)cc4oc3=O)cc(F)c2n1	32.0 ± 2.1
CNC1CCN(c2ccc3cc(-c4cc(F)c5nc(C)cn5c4)c(=O)oc3c2)C1 (centres unmarked)	19.3 ± 2.3
Cc1cn2cc(-c3cc4ccc(N5CCN(C)CC5)cc4oc3=O)cc(F)c2n1	10.88 ± 0.3
Cc1cn2cc(-c3cc4ccc(N5CCN[C@@H](C)C5)c(C)c4oc3=O)cc(F)c2n1	11.1 ± 2.8
COc1cn2cc(-c3cc4ccc(N5CCNCC5)cc4oc3=O)nc2cn1	39.6 ± 0.4
Cc1cn2cc(-c3cc4ccc(N5CCN[C@@H](C)C5)cc4n(CCO)c3=O)cc(F)c2n1	40.1 ± 5.2
Cc1cn2cc(-c3cc4ccc(N5CC6CNCC6C5)cc4oc3=O)cc(F)c2n1 (centres unmarked)	18.2 ± 1.9
Cc1cn2cc(-c3cc4ccc(N5CCN(CC6CCOCC6)[C@@H](C)C5)cc4oc3=O)cc(F)c2n1	12.0 ± 0.4
Cc1nccn2cc(-c3cc4ccc(N5CCN[C@@H](C)C5)cc4oc3=O)nc12	39.9 ± 11.5
Cc1cn2cc(-c3cc4ccc(N5CC6CCCNC6C5)cc4oc3=O)cc(F)c2n1 (centres unmarked)	13.5 ± 2.0
Cc1cn2cc(-c3cc4ccc(N5CCN[C@@H](CO)C5)cc4oc3=O)cc(F)c2n1	11.9 ± 0.9

Tested on: flexible GA-rich RNA, 5'-U(GAAG)2GU (RNA, single strand) UGAAGGAAGGU
Assay: fluorescence polarization (intrinsic ligand fluorescence)
Settings: Na+ 50 mM; 25 mM MES, 0.002% Triton X, pH 6.1, 25 °C, 0.1 μM ligand

SMILES	Kd [µM]
O=c1oc2cc(N3CCNCC3)ccc2cc1-c1cn2ccc(Cl)cc2n1	25.9 ± 6.0
Cc1cn2cc(-c3cc4ccc(N5CCN(CC6CC6)[C@@H](C)C5)cc4oc3=O)cc(F)c2n1	2.7 ± 0.1
O=c1oc2cc(N3CCNCC3)ccc2cc1-c1cn2ccc(C(F)(F)F)cc2n1	21.8 ± 0.2
Cc1cn2cc(-c3nc4ccc(N5CCN[C@@H](C)C5)cc4s3)c(F)cc2n1	38.9 ± 6.6
Cc1cn2cc(-c3nc4sc(N5CCN(C)CC5)cc4s3)cc(F)c2n1	35.7 ± 0.01
COc1ccn2cc(-c3cc4ccc(N5CCNCC5)cc4oc3=O)nc2c1	10.7 ± 0.1
O=c1oc2cc(N3CCNCC3)ccc2cc1-c1cn2ccccc2n1	14.5 ± 1.3
Cc1cn2cc(-c3cc4ccc(N5CC6CCC(C5)N6)cc4oc3=O)cc(F)c2n1	71.0 ± 2.3
COc1c(N2CCN[C@@H](C)C2)ccc2cc(-c3cc(F)c4nc(C)cn4c3)c(=O)n(C)c12	22.1 ± 2.7
Cc1nc2c(F)cc(-c3cc4ccc(N5CCN[C@@H](C)C5)cc4oc3=O)cc2o1	> 100
Cc1cn2cc(-c3cc4ccc(N5CCN[C@@H](C)C5)cc4n(-c4ccccc4)c3=O)cc(F)c2n1	78.1 ± 9.7
CCN1CCN(c2ccc3cc(-c4cn5cc(C)nc(C)c5n4)c(=O)oc3c2)C[C@@H]1C	14.1 ± 0.9
COc1ccc2nc(-c3cc4ccc(N5CCNCC5)cc4oc3=O)cn2c1	29.7 ± 3.0
CCN1CCN(c2ccc3cc(-c4cc(F)c5nc(C)cn5c4)c(=O)oc3c2)C[C@@H]1C	3.06 ± 0.3
